PMC5071857, “A unique peptide deformylase platform to rationally design and challenge novel active compounds” (Scientific Reports, 2016)
Read-outs that look alike come from different tables or passages of the source.

Experiments:
[1] = test system: E. coli AG100A (AcrAB- derivative); assay: MIC by microdilution, E. coli AG100A; assay type: cell-based; details: for MIC: Escherichia coli, 18 h, read-out: MIC AG100A; for MIC AG100A: with PMBN at 1/5 of its MIC, 18 h at 37 °C, average of three assays
Description: (§1) Two E. coli strains, one B. subtilis strain, one S. aureus strain, one E. faecalis strain, one S. agalactiae strain and three Enterobacter aerogenes strains previously described were used. Briefly, AG100 was an E. coli wild type strain and AG100A its acrAB^- derivative. EA289 was a Kan^s derivative of an E. aerogenes multi-drug resistant (MDR) clinical isolate overexpressing AcrAB-TolC efflux pumps, and EA294 and EA298 its acrAB^- and tolC^- derivatives respectively. Strains were routinely grown at 37 °C on Luria-Bertani (LB) agar or in Mueller-Hinton II broth (MH), supplemented with kanamycine (50 μg.mL^−1) for AG100A, EA294 and EA298.
(§2) MIC values of antibiotics were determined by the microdilution method in liquid MH media in microplates in the absence or presence of chemosensitizers/modulators (e.g. PMBN, PAβN), as previously described. Permeabilization, blocking of efflux pumps, and isolates with different levels of porin or efflux expression were used to assess the involvement of the membrane barrier in antibiotic activity.
(§3) Susceptibilities were determined in 96-wells microplates with an inoculum of 2 × 10^5 cfu in 200 μL of MH broth containing two-fold serial dilutions of each antibiotics or compounds. Molecules were tested alone or in combination with other molecules in equimolar ratio. MICs were realized in the absence and in the presence of a membrane permeabilizer, the polymyxine B nonapeptide (PMBN) used at 51.2 mg/L (1/5 or 1/10 of its direct MIC previously determined). Actinonin and ciprofloxacin were used as internal antibiotic reference. […] Each test was systematically performed in triplicate. The average of three independent assays is presented in μg/mL in the respective tables.

[2] = test system: E. coli AG100; assay: MIC by microdilution, E. coli AG100; assay type: cell-based; details: 18 h at 37 °C, average of three assays; for MIC: Escherichia coli, AG100, without PMBN; for MIC AG100: with PMBN at 1/5 of its MIC
Description: as §1, §2, §3

[3] = biological target: T1, EcPDF (Escherichia coli, UniProt P0A6K3); assay: PDF inhibition, formate dehydrogenase-coupled spectrophotometric assay (EcPDF); assay type: biochemical
T1 construct: made in house
T1 sequence (P0A6K3 whole entry): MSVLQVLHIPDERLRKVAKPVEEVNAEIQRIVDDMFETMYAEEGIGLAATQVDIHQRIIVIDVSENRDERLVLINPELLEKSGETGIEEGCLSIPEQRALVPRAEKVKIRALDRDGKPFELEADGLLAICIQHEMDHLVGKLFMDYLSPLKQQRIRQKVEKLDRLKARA
Description: (§4) The formate released by the deformylation reaction is used by FDH to convert NAD in NADH, the production of which being measured over time at 340 nm and controlled temperature (37 °C). The 200 μL reaction mixture contained 50 mM HEPES-NaOH pH7.5, 12 mM NAD^+, 4.5 U/mL FDH, 1 mM NiCl2 and PDF enzyme (either 40 nM SaPDF or 10 nM EcPDF or 100 nM AtPDF1B) previously diluted in presence of 0.1 mg/mL BSA. The reaction was started by addition of 1–6 mM Fo-Met-Ala-Ser. Kinetics parameters (kcat, Km) were derived from iterative non-linear least square fits using the Michaelis-menten equation based on the experimental data (Sigma-Plot, Kinetics module).
(§5) 1/KI*app is the slope of the v0/vi curve in function of compound concentration, where v0 and vi are the initial reaction rates in absence and presence of compound, respectively.
(§6) Determination of KI values was performed with a slightly modified protocol: reaction was started by addition of enzyme instead of Fo-Met-Ala-Ser, the latter being directly added to the mixture containing increasing concentrations of each compound. No pre-incubation of enzyme in presence of compound was done. 1/KI is the slope of the v0/vi curve in function of compound concentration, where v0 and vi are the initial reaction rates in absence and presence of compound respectively.

[4] = test system: E. faecalis EFA 103.214; assay: MIC, E. faecalis EFA 103.214; assay type: cell-based
Description: as §1, §2, §3

[5] = test system: S. aureus SA113; assay: MIC, S. aureus SA113; assay type: cell-based; details: Staphylococcus aureus
Description: as §1, §2, §3

[6] = biological target: T2, SaPDF (Streptococcus agalactiae serotype III, UniProt Q8E378, S2A); assay: biochemical; details: for Ki: SaPDF KI, no pre-incubation, assay initiated by addition of enzyme, 40 nM SaPDF, 37 °C; for SaPDF KI/KI*app: enhancement potency (slow tight-binding)
T2 construct: the recombinant protein contains all residues of the 204 amino acids mature protein; made in house; host or cells: E. coli Rosetta 2(DE3)pLysS
T2 sequence (Q8E378 whole entry S2A): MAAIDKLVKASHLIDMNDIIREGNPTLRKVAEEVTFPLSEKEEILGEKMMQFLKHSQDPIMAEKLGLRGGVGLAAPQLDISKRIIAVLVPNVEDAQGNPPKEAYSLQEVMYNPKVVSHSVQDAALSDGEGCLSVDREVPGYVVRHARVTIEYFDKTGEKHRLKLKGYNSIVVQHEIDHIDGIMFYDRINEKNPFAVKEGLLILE
Description: as §4, with “Enzymatic activity was measured by a spectrophotometric assay where peptide deformylase activity is coupled to that of formate dehydrogenase. The formate” for “The formate”
as §5, §6

[7] = biological target: T2, SaPDF; assay: biochemical; details: SaPDF KI*app, PDFI pre-incubated with enzyme 10 min at 37 °C, started by 2 mM Fo-Met-Ala-Ser; 40 nM SaPDF
[8] = biological target: T3, AtPDF1B (Arabidopsis thaliana, UniProt Q9FUZ2); assay: PDF inhibition, formate dehydrogenase-coupled spectrophotometric assay (AtPDF1B); assay type: biochemical; details: 100 nM AtPDF1B; for IC50: 2 mM Fo-Met-Ala-Ser, 10 min pre-incubation at 37 °C; for Ki: PDFI pre-incubated with enzyme 10 min at 37 °C, read-out: AtPDF1B KI*app
T3 construct: made in house
T3 sequence (Q9FUZ2 83-273): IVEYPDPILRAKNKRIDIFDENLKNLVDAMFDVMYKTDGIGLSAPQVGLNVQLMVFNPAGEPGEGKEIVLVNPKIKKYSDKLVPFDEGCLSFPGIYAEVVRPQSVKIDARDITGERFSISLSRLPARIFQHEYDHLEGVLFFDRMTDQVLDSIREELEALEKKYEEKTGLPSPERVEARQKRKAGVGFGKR
Description: as §4, with “Enzymatic activity was measured by a spectrophotometric assay where peptide deformylase activity is coupled to that of formate dehydrogenase. The formate” for “The formate”
as §5, §6

[9] = test system: E. aerogenes Ea298, Ea289 derivative tolC-; assay: MIC by microdilution, E. aerogenes Ea298; assay type: cell-based, Enterobacter aerogenes; details: for MIC Ea298: +PMBN at 1/5 of its MIC, average of three assays; for MIC: Klebsiella aerogenes, 18 h, read-out: MIC Ea298
Description: as §1, §2, §3

[10] = test system: E. aerogenes Ea289, MDR strain; assay: MIC by microdilution, E. aerogenes Ea289; assay type: cell-based, Enterobacter aerogenes; details: for MIC Ea289: +PMBN at 1/5 of its MIC, average of three assays; for MIC: Klebsiella aerogenes, 18 h, read-out: MIC Ea289
Description: as §1, §2, §3

[11] = test system: E. aerogenes Ea294, Ea289 derivative AcrAB-; assay: MIC by microdilution, E. aerogenes Ea294; assay type: cell-based, Enterobacter aerogenes; details: for MIC Ea294: +PMBN at 1/5 of its MIC, average of three assays; for MIC: Klebsiella aerogenes, 18 h, read-out: MIC Ea294
Description: as §1, §2, §3

[12] = 10 nM EcPDF, 2 mM Fo-Met-Ala-Ser, 10 min pre-incubation at 37 °C, read-out: IC50 EcPDF
[13] = Enterococcus faecalis, EFA103.214, read-out: MIC E. faecalis EFA 103.214
[14] = EcPDF KI*app, PDFI pre-incubated with enzyme 10 min at 37 °C, started by 2 mM Fo-Met-Ala-Ser, 10 nM EcPDF
[15] = PDFI pre-incubated with enzyme 10 min at 37 °C, started by 2 mM Fo-Met-Ala-Ser, 10 nM EcPDF, read-out: EcPDF KI*app

| Structure (SMILES) | MIC [1] | MIC AG100A [1] | MIC [2] | MIC AG100 [2] | IC50 [3, 12] | MIC [4, 13] | MIC [5] | IC50 [6] | Ki [7] | also measured |
| --- | --- | --- | --- | --- | --- | --- | --- | --- | --- | --- |
| CCCCC(CC(=O)NO)c1nc(-c2ccc([N+](=O)[O-])cc2)no1 (stereo not shown) [AT001] | > 64 µg/mL | 32 µg/mL | > 64 µg/mL | >64 µg/mL | 160 nM | – | – | – | – | – |
| CCCC[C@H](CC(=O)NO)c1nc(-c2ccccc2)co1 [AT003] | > 64 µg/mL | 16 µg/mL | > 64 µg/mL | 64 µg/mL | 190 nM | > 64 µg/mL | > 64 µg/mL | – | – | – |
| CCCCC(CC(=O)NO)c1nc(C(=O)OCC)co1 (stereo not shown) [AT004] | > 64 µg/mL | 32 µg/mL | > 64 µg/mL | >64 µg/mL | 110 nM | > 64 µg/mL | > 64 µg/mL | – | – | – |
| CCCCC(CC(=O)NO)c1nc(-c2ccccc2)no1 (stereo not shown) [AT006] | > 64 µg/mL | 32 µg/mL | > 64 µg/mL | 64 µg/mL | 155 nM | > 64 µg/mL | > 64 µg/mL | – | – | – |
| CCCCC(CC(=O)NO)c1nc(Cc2ccc(C)cc2)no1 (stereo not shown) [AT012] | 64 µg/mL | 8 µg/mL | > 64 µg/mL | 32 µg/mL | – | > 64 µg/mL | > 64 µg/mL | 67 ± 5 nM | 400 ± 35 nM | IC50 [3]: 27 ± 3 nM; Ki [3, 14]: 70 ± 8 nM; IC50 [8]: 460 ± 22 nM; Ki ([8]; started by 2 mM Fo-Met-Ala-Ser): 625 ± 30 nM |
| CCCCC(CC(=O)NO)c1nc(Cc2ccc(-c3ccccc3)cc2)no1 (stereo not shown) [AT014] | > 64 µg/mL | 64 µg/mL | > 64 µg/mL | 64 µg/mL | – | > 64 µg/mL | > 64 µg/mL | 16 ± 2 nM | 65 ± 10 nM | Ki [6]: 84 ± 6 nM; SaPDF KI/KI*app [6]: 1; IC50 [3]: 25 ± 4 nM; Ki [3, 14]: 66 ± 3 nM; IC50 [8]: 550 ± 25 nM; Ki ([8]; started by 2 mM Fo-Met-Ala-Ser): 909 ± 32 nM |
| CCCCC(CC(=O)NO)c1nc(Cc2ccc3c(c2)OCO3)no1 (stereo not shown) [AT016] | 64 µg/mL | 8 µg/mL | > 64 µg/mL | 64 µg/mL | 10 ± 1 nM | – | > 64 µg/mL | 10 ± 2 nM | 55 ± 5 nM | Ki [6]: 67 ± 7 nM; SaPDF KI/KI*app [6]: 1; Ki [3, 15]: 26 ± 5 nM; EcPDF KI/KI*app ([3]; enhancement potency (slow tight-binding)): 1; Ki ([3]; no pre-incubation, assay initiated by addition of enzyme, 10 nM EcPDF, 37 °C, read-out: EcPDF KI): 25 ± 3 nM; MIC ([4]; Enterococcus faecalis, EFA103.214; read-out: MIC E. faecalis EFA 103.214): > 64 µg/mL |
| CCCCC(CC(=O)NO)c1nc(Cc2nc3ccccc3s2)no1 (stereo not shown) [AT017] | 64 µg/mL | 8 µg/mL | > 64 µg/mL | 64 µg/mL | 30 ± 8 nM | > 64 µg/mL | > 64 µg/mL | 23 ± 4 nM | 85 ± 8 nM | Ki [3, 15]: 41 ± 3 nM |
| CCCC[C@H](CC(=O)NO)c1nc(Cc2ccc(C(=O)O)cc2)no1 [AT021] | – | – | – | – | – | – | – | 211 ± 10 nM | 200 ± 10 nM | IC50 [3]: 75 ± 2 nM; Ki [3, 14]: 76 ± 5 nM; IC50 [8]: 8200 ± 1000 nM; Ki [8]: ~10000 nM |
| CC(C)(O/N=C(\C(=O)N[C@@H]1C(=O)N2C(C(=O)[O-])=C(C[n+]3ccccc3)CS[C@H]12)c1csc(N)n1)C(=O)O [Ceftazidim, ceftazidime, reference compound] | – | – | – | – | – | – | – | – | – | MIC Ea298 [9]: 64 µg/mL; MIC [9]: > 128 µg/mL; MIC Ea289 [10]: 64 µg/mL; MIC [10]: > 128 µg/mL; MIC Ea294 [11]: 64 µg/mL; MIC [11]: > 128 µg/mL |
| O=C(N[C@H](CO)[C@H](O)c1ccc([N+](=O)[O-])cc1)C(Cl)Cl [Chloramphenicol, chloramphenicol, reference compound] | – | – | – | – | – | – | – | – | – | MIC Ea298 [9]: 4 µg/mL; MIC [9]: 32 µg/mL; MIC Ea289 [10]: 8 µg/mL; MIC [10]: > 128 µg/mL; MIC Ea294 [11]: 4 µg/mL; MIC [11]: 32 µg/mL |
